Experimental data as given in US6225100A, “Arylsulfotransferase” (DCV, Inc., priority 1999, dated 2001).
Where a name gives a salt, the structure may show the parent alone. Read-outs that look alike come from different tables or passages of the source. Peptide text beside a SMILES is read from it.

Tests used:
[1] = tested on: AST of Clostridium innocuum 554 ATCC 55803 (Strain 554WT); test: AST assay, sulfate donor substrate specificity with tyramine as sulfate acceptor; type: biochemical; details: for Activity (%) as sulfate donor: relative to p-nitrophenylsulfate designated as 100% activity, tyramine as sulfate acceptor; for specific activity as donor substrate: normalized to p-acetylphenylsulfate as donor baseline at 100% activity
Procedure: (§1) At each stage of purification, the AST activity was assayed by incubating the AST with 0.1 M Tris (pH 8.0), 5.0 mM p-nitrophenylsulfate (as aryl sulfate donor) and 2.5 mM tyramine (as sulfate acceptor). The reaction was incubated at 37° C. and terminated by addition of 1 N NaOH. The amount of p-nitrophenol formed during the reaction was determined by an absorbance reading at 405 nm. One unit of enzyme is equal to 1 mmol of p-nitrophenol formed per minute per milligram protein. Other aryl sulfate donors and phenolic acceptors were used at similar concentrations. Peptide acceptors were typically used in the 250-500 mM range. Formation of sulfated phenols and peptides was also quantitated via HPLC, using a 30% acetonitrile/70% water mobile phase. A UV detector was used to monitor peptides at 280 nm. Other wavelengths were used with various sulfated phenolic products and substrates as appropriate.
The AST assay was performed as described in Example 2 using each of the sulfate donors listed in Table 4, with tyramine as the sulfate acceptor in each case. […] Activity is shown as a percentage relative to the activity obtained with p-nitrophenylsulfate, which is designated as 100% activity.

[2] = tested on: AST from Clostridium innocuum strain 554WT; test: AST assay, sulfate acceptors (phenolic compounds, tyrosylpeptides) with p-nitrophenylsulfate as sulfate donor; type: biochemical; details: for Yield (%) of sulfated tyrosylpeptide: tyrosylpeptides as sulfate acceptors
[3] = tested on: bacterial arylsulfotransferase; details: prior bacterial arylsulfotransferase; Kobashi et al., 1987; cited from earlier work
[4] = tested on: Eubacterium nodatum arylsulfotransferase; test: Sulfation of CCK-8 by Eubacterium nodatum enzyme; type: biochemical; details: under conditions similar to the prior art
[5] = tested on: AST of Clostridium innocuum 554 ATCC 55803 (Strain 554WT); test: Apparent Km from double reciprocal plots; type: biochemical
Procedure: as §1
In this AST assay, various concentrations of p-nitrophenylsulfate (as a sulfate donor) and of tyramine (as a sulfate acceptor) were plotted against the corresponding enzyme reaction rate in a double reciprocal plots (FIG. 4). AST activity was determined as described previously.

[6] = tested on: Eubacterium A-44 arylsulfotransferase; details: p-acetylphenylsulfate as donor baseline at 100% activity; Kobashi et al., 1987; cited from earlier work
Clostridium innocuum AST = test: Effectors of arylsulfotransferase activity; type: biochemical; details: no effect / inhibitory / stimulatory
Source text: The above-described physical and biochemical properties of a Clostridium innocuum AST of the present invention are summarized in Table 3.

[7] = phenolic compounds, p-nitrophenylsulfate as sulfate donor, tyramine 100
[8] = p-nitrophenylsulfate as sulfate donor

Cc1cc(=O)oc2cc(OS(=O)(=O)O)ccc12 [4-methylumbelliferyl sulfate]
Activity (%) as sulfate donor [1]: 46%

Cc1cc(=O)oc2cc(O)ccc12 [4-methylumbelliferone]
Activity (%) as sulfate acceptor [2, 7]: 86%

CC(C)C[C@H](NC(=O)[C@H](Cc1ccc(O)cc1)NC(=O)[C@@H](N)CCCNC(=N)N)C(=O)N1CCC[C@H]1C(=O)N[C@H](C(=O)O)[C@@H](C)O [proctolin] (H-RYLPT-OH)
Yield (%) of sulfated tyrosylpeptide [2, 8]: 19.8%

CC[C@H](C)[C@H](NC(=O)[C@H](Cc1ccc(O)cc1)NC(=O)[C@@H](NC(=O)[C@H](CCCNC(=N)N)NC(=O)[C@@H](N)CC(=O)O)C(C)C)C(=O)N[C@@H](Cc1cnc[nH]1)C(=O)N1CCC[C@H]1C(=O)N[C@@H](Cc1ccccc1)C(=O)N[C@@H](Cc1cnc[nH]1)C(=O)N[C@@H](CC(C)C)C(=O)O [angiotensin I] (H-DRVYIHPFHL-OH)
Yield (%) of sulfated tyrosylpeptide [2, 8]: 8.8%

CSCC[C@H](NC(=O)[C@H](Cc1ccc(O)cc1)NC(=O)[C@@H](N)CC(=O)O)C(=O)NCC(=O)N[C@@H](Cc1c[nH]c2ccccc12)C(=O)N[C@@H](CCSC)C(=O)N[C@@H](CC(=O)O)C(=O)N[C@@H](Cc1ccccc1)C(N)=O [cholecystokinin8, cholecystokinin-8]
highest reported yield of sulfated CCK-8 [3]: ~31.3%
yield of sulfation of CCK-8 [4]: ≥ 45%
yield of sulfation of CCK-8 ([2]; Clostridium arylsulfotransferase, under conditions similar to the prior art): ≥ 60%
Yield (%) of sulfated tyrosylpeptide [2, 8]: 35.4%

C[C@@H](NC(=O)[C@@H](N)Cc1ccc(O)cc1)C(=O)N[C@@H](Cc1ccccc1)C(=O)NCC(=O)N[C@@H](Cc1ccc(O)cc1)C(=O)N1CCC[C@H]1C(=O)N[C@@H](CO)C(N)=O [dermorphin]
Yield (%) of sulfated tyrosylpeptide [2, 8]: 67.0%

phenolphthalein sulfate
Activity (%) as sulfate donor [1]: 12%

NCCc1ccc(O)cc1 [tyramine, 4-hydroxyphenethylamine]
Km [5]: 1630 µM
Activity (%) as sulfate acceptor [2, 7]: 100%

CC(C)C[C@H](NC(=O)[C@H](Cc1ccccc1)NC(=O)CNC(=O)CNC(=O)[C@@H](N)Cc1ccc(O)cc1)C(=O)O [leu enkephalin]
Yield (%) of sulfated tyrosylpeptide [2, 8]: 92.5%

Oc1ccccc1 [phenol]
Activity (%) as sulfate acceptor [2]: 194

C[C@]12CC[C@@H]3c4ccc(OS(=O)(=O)O)cc4CC[C@H]3[C@@H]1CCC2=O [estrone sulfate]
specific activity as donor substrate [1]: about 17%
Activity (%) as sulfate donor [1]: 22%
specific activity as donor substrate [6]: about 3.4%

hirudin (54-65) (GDFEEIPEEYLQ) [Gly-Asp-Phe-Glu-Glu-lle-Pro-Glu-Glu-Tyr-Leu-Gin]
Yield (%) of sulfated tyrosylpeptide [2, 8]: 7.7%

O=S(=O)(O)Oc1c[nH]c2ccccc12 [indoxyl sulfate]
specific activity as donor substrate [1]: about 27%
Activity (%) as sulfate donor [1]: 35%
specific activity as donor substrate [6]: about 2.2%

Oc1cc(O)c2c(c1)OC(c1ccc(O)c(O)c1)C(O)C2 (stereo not shown) [catechin]
Activity (%) as sulfate acceptor [2]: 150

Oc1ccccc1O [catechol]
Activity (%) as sulfate acceptor [2]: 208

CSCC[C@H](NC(=O)[C@H](Cc1c[nH]c2ccccc12)NC(=O)CNC(=O)[C@@H](NC(=O)[C@H](Cc1ccc(O)cc1)NC(=O)[C@H](CC(=O)O)NC(=O)[C@H](CCC(N)=O)NC(=O)[C@@H]1CCC(=O)N1)[C@@H](C)O)C(=O)N[C@@H](CC(=O)O)C(=O)N[C@@H](Cc1ccccc1)C(N)=O (HELM PEPTIDE1{[Glp].Q.D.Y.T.G.W.M.D.F.[am]}$$$$V2.0)
Yield (%) of sulfated tyrosylpeptide [2, 8]: 4.8%

N[C@@H](Cc1ccc(O)cc1)C(=O)O [tyrosine]
Activity (%) as sulfate acceptor [2]: 13

O=[N+]([O-])c1ccc(O)c(OS(=O)(=O)O)c1 [p-nitrocatechol sulfate]
Activity (%) as sulfate donor [1]: 196%

NC(=O)CC[C@@H]1NC(=O)[C@H](Cc2ccccc2)NC(=O)[C@H](Cc2ccc(O)cc2)NC(=O)[C@@H](N)CSSC[C@@H](C(=O)N2CCC[C@H]2C(=O)N[C@@H](CCCN=C(N)N)C(=O)NCC(N)=O)NC(=O)[C@H](CC(N)=O)NC1=O [arg8 vasopressin]
Yield (%) of sulfated tyrosylpeptide [2, 8]: 35.8%

COC(=O)c1ccc(O)cc1 [methyl p-hydroxybenzoate]
Activity (%) as sulfate acceptor [2]: 65

COC(=O)[C@@H](N)Cc1ccc(O)cc1 [tyrosine methyl ester]
Activity (%) as sulfate acceptor [2, 7]: 59%

Nc1ncnc2c1ncn2[C@@H]1O[C@H](COP(=O)(O)OS(=O)(=O)O)[C@@H](OP(=O)(O)O)[C@H]1O [3'-phosphoadenosine-5'-phosphosulfate]
utilization as a sulfate donor ([1]; in words): does not utilize
Activity (%) as sulfate donor [1]: 0%

O=C(O)CN(CCN(CC(=O)O)CC(=O)O)CC(=O)O [EDTA]
Effectors: effect on enzyme activity (Clostridium innocuum AST): no effect

N=C(N)NCCC[C@H](NC(=O)[C@@H](N)Cc1ccc(O)cc1)C(=O)O [kyotorphin]
Yield (%) of sulfated tyrosylpeptide [2, 8]: 16.8%

CSCC[C@H](NC(=O)[C@H](CC(C)C)NC(=O)CNC(=O)[C@H](Cc1ccc(O)cc1)NC(=O)[C@H](Cc1ccccc1)NC(=O)[C@H](CCCCN)NC(=O)[C@H](CC(N)=O)NC(=O)[C@@H]1CCCN1C(=O)[C@H](CC(=O)O)NC(=O)[C@H](C)NC(=O)[C@@H]1CCC(=O)N1)C(N)=O [physalaemin] (HELM PEPTIDE1{[Glp].A.D.P.N.K.F.Y.G.L.M.[am]}$$$$V2.0)
Yield (%) of sulfated tyrosylpeptide [2, 8]: 10.5%
